{
  "source": "paper PMC5218480",
  "about": "(PLoS ONE, 2017)",
  "tested_on": "MV-4-11 cells",
  "experiment": "Gene expression microarray analysis (Affymetrix PrimeView) and GSEA",
  "format": "cell-based, human",
  "set-up": "RFU PODN (11730768_x_at) / Fold change /veh PODN (11730768_x_at) / RFU LINC00158 (11744669_a_at) / Fold change /veh LINC00158 (11744669_a_at) / RFU DUSP10 (11751237_a_at) / Fold change /veh DUSP10 (11751237_a_at) / RFU ID3 (11757404_x_at) / Fold change /veh ID3 (11757404_x_at) / RFU PLEKHG5 (11737974_s_at) / Fold change /veh PLEKHG5 (11737974_s_at) / RFU LRRC4B (11730491_at) / Fold change /veh LRRC4B (11730491_at) / RFU GIMAP4 (11747438_a_at) / Fold change /veh GIMAP4 (11747438_a_at) / RFU KRT8 (11758183_x_at) / Fold change /veh KRT8 (11758183_x_at) / RFU CNN1 (11734310_a_at) / Fold change /veh CNN1 (11734310_a_at) / RFU VPS37D (11726825_at) / Fold change /veh VPS37D (11726825_at) / RFU C10orf10 (11716522_x_at) / Fold change /veh C10orf10 (11716522_x_at) / RFU KIR2DL2 /// KIR2DL4 /// KIR2DL5A /// KIR2DL5B /// KIR2DS1 /// KIR2DS2 /// KIR2DS3 /// KIR2DS4 /// KIR3DL3 /// KIR3DL3 /// KIR3DS1 (11738374_at) / Fold change /veh KIR2DL2 /// KIR2DL4 /// KIR2DL5A /// KIR2DL5B /// KIR2DS1 /// KIR2DS2 /// KIR2DS3 /// KIR2DS4 /// KIR3DL3 /// KIR3DL3 /// KIR3DS1 (11738374_at) / RFU C1QL1 (11718748_at) / Fold change /veh C1QL1 (11718748_at) / RFU TMPRSS4 (11747572_a_at) / Fold change /veh TMPRSS4 (11747572_a_at) / RFU HAMP (11756126_x_at) / Fold change /veh HAMP (11756126_x_at) / RFU RNFT2 (11725882_a_at) / Fold change /veh RNFT2 (11725882_a_at) / RFU NR4A2 (11747474_a_at) / Fold change /veh NR4A2 (11747474_a_at) / RFU ABCC12 (11746883_a_at) / Fold change /veh ABCC12 (11746883_a_at) / RFU TMEM136 (11760407_x_at) / Fold change /veh TMEM136 (11760407_x_at) / RFU CLDN22 /// WWC2 (11732394_at) / Fold change /veh CLDN22 /// WWC2 (11732394_at) / RFU HLA-DPB1 (11760878_x_at) / Fold change /veh HLA-DPB1 (11760878_x_at) / RFU SPINT1 (11716480_a_at) / Fold change /veh SPINT1 (11716480_a_at) / RFU GAP43 (11754022_s_at) / Fold change /veh GAP43 (11754022_s_at) / RFU A4GNT (11735810_at) / Fold change /veh A4GNT (11735810_at) / RFU PRB3 (11715151_x_at) / Fold change /veh PRB3 (11715151_x_at) / RFU TUBB4B (11761932_at) / Fold change /veh TUBB4B (11761932_at) / RFU CAPN14 (11732068_a_at) / Fold change /veh CAPN14 (11732068_a_at) / RFU TMCC2 (11721928_a_at) / Fold change /veh TMCC2 (11721928_a_at) / RFU IRGQ (11745062_a_at) / Fold change /veh IRGQ (11745062_a_at) / RFU FAM174B (11720279_a_at) / Fold change /veh FAM174B (11720279_a_at) / RFU TMPRSS4 (11748680_a_at) / Fold change /veh TMPRSS4 (11748680_a_at) / RFU FAM212B (11763350_a_at) / Fold change /veh FAM212B (11763350_a_at) / RFU PLEKHG5 (11743358_a_at) / Fold change /veh PLEKHG5 (11743358_a_at) / RFU ZSCAN30 (11745921_a_at) / Fold change /veh ZSCAN30 (11745921_a_at) / RFU CMKLR1 (11741424_a_at) / Fold change /veh CMKLR1 (11741424_a_at) / RFU LOC101060620 /// MAPK8IP1 (11723275_at) / Fold change /veh LOC101060620 /// MAPK8IP1 (11723275_at) / RFU SPTSSB (11747773_x_at) / Fold change /veh SPTSSB (11747773_x_at) / RFU PRSS12 (11739890_at) / Fold change /veh PRSS12 (11739890_at) / RFU BIN1 (11741810_x_at) / Fold change /veh BIN1 (11741810_x_at) / RFU WNT11 (11732464_a_at) / Fold change /veh WNT11 (11732464_a_at) / RFU C10orf10 (11716521_a_at) / Fold change /veh C10orf10 (11716521_a_at) / RFU C5orf56 (11738089_at) / Fold change /veh C5orf56 (11738089_at) / RFU CYB561 (11721691_x_at) / Fold change /veh CYB561 (11721691_x_at) / RFU ANKRD19P (11752326_a_at) / Fold change /veh ANKRD19P (11752326_a_at) / RFU OR2T12 /// OR2T33 /// OR2T8 (11738714_s_at) / Fold change /veh OR2T12 /// OR2T33 /// OR2T8 (11738714_s_at) / RFU VCAN (11748164_a_at) / Fold change /veh VCAN (11748164_a_at) / RFU JSRP1 (11732532_at) / Fold change /veh JSRP1 (11732532_at) / RFU KRTAP10-11 (11738290_x_at) / Fold change /veh KRTAP10-11 (11738290_x_at) / RFU MYO3A (11730013_a_at) / Fold change /veh MYO3A (11730013_a_at) / RFU EBF3 (11725865_a_at) / Fold change /veh EBF3 (11725865_a_at) / RFU CAMK2N1 (11719241_x_at) / Fold change /veh CAMK2N1 (11719241_x_at) / RFU C5orf56 (11738088_a_at) / Fold change /veh C5orf56 (11738088_a_at) / RFU OLFML3 (11715873_a_at) / Fold change /veh OLFML3 (11715873_a_at) / RFU LOC100653217 /// NTM (11731650_a_at) / Fold change /veh LOC100653217 /// NTM (11731650_a_at) / RFU MAPK11 (11762145_a_at) / Fold change /veh MAPK11 (11762145_a_at) / RFU FIZ1 (11724087_x_at) / Fold change /veh FIZ1 (11724087_x_at) / RFU OASL (11726364_x_at) / Fold change /veh OASL (11726364_x_at) / RFU SOX15 (11748057_x_at) / Fold change /veh SOX15 (11748057_x_at) / RFU CD79A (11719716_a_at) / Fold change /veh CD79A (11719716_a_at) / RFU HIST1H1D (11736915_at) / Fold change /veh HIST1H1D (11736915_at) / RFU CASKIN2 (11723855_a_at) / Fold change /veh CASKIN2 (11723855_a_at) / RFU LOC730098 (11760151_x_at) / Fold change /veh LOC730098 (11760151_x_at) / RFU OR4N2 (11742367_at) / Fold change /veh OR4N2 (11742367_at) / RFU PRRT2 (11749266_a_at) / Fold change /veh PRRT2 (11749266_a_at) / RFU SNX32 (11753110_a_at) / Fold change /veh SNX32 (11753110_a_at) / RFU CDHR5 (11726645_a_at) / Fold change /veh CDHR5 (11726645_a_at) / RFU RCAN1 (11760418_a_at) / Fold change /veh RCAN1 (11760418_a_at) / RFU FAM167A (11723789_a_at) / Fold change /veh FAM167A (11723789_a_at) / RFU FAM26E (11764081_at) / Fold change /veh FAM26E (11764081_at) / RFU ISYNA1 (11749810_s_at) / Fold change /veh ISYNA1 (11749810_s_at) / RFU ACY1 (11761880_at) / Fold change /veh ACY1 (11761880_at) / RFU 11764098_at / Fold change /veh 11764098_at / RFU SAMD14 (11745864_x_at) / Fold change /veh SAMD14 (11745864_x_at) / RFU NPB (11741838_a_at) / Fold change /veh NPB (11741838_a_at) / RFU TMPRSS6 (11731388_a_at) / Fold change /veh TMPRSS6 (11731388_a_at) / RFU KRTAP10-2 (11738614_at) / Fold change /veh KRTAP10-2 (11738614_at) / RFU ARHGAP8 /// PRR5-ARHGAP8 (11727945_x_at) / Fold change /veh ARHGAP8 /// PRR5-ARHGAP8 (11727945_x_at) / RFU KRTAP5-7 /// NADSYN1 (11734609_at) / Fold change /veh KRTAP5-7 /// NADSYN1 (11734609_at) / RFU RASL12 (11751679_a_at) / Fold change /veh RASL12 (11751679_a_at) / RFU CDKN2B (11736163_a_at) / Fold change /veh CDKN2B (11736163_a_at) / RFU PRF1 (11729649_at) / Fold change /veh PRF1 (11729649_at) / RFU, ZNF638 /// ZNF638-IT1 / Fold change vs veh, ZNF638 /// ZNF638-IT1 / RFU, PANK3 / Fold change vs veh, PANK3 / RFU, SH3YL1 / Fold change vs veh, SH3YL1 / RFU, ZEB2 / Fold change vs veh, ZEB2 / RFU, NRIP1 / Fold change vs veh, NRIP1 / RFU, PTTG1IP / Fold change vs veh, PTTG1IP / RFU, CAPN2 / Fold change vs veh, CAPN2 / RFU, MED14 / Fold change vs veh, MED14 / RFU, SNORA58 / Fold change vs veh, SNORA58 / RFU, C1orf63 / Fold change vs veh, C1orf63 / RFU, LRRFIP1 / Fold change vs veh, LRRFIP1 / RFU, NDUFAF7 / Fold change vs veh, NDUFAF7 / RFU, SLC12A2 / Fold change vs veh, SLC12A2 / RFU, IBTK / Fold change vs veh, IBTK / RFU, ESF1 / Fold change vs veh, ESF1 / Fold change vs veh, TMEM50B / RFU, TAOK1 / Fold change vs veh, TAOK1 / RFU, ACBD3 / Fold change vs veh, ACBD3 / RFU, TMA16 / Fold change vs veh, TMA16 / RFU, RWDD3 / Fold change vs veh, RWDD3 / RFU, BCAT1 / Fold change vs veh, BCAT1 / RFU, EDEM3 / Fold change vs veh, EDEM3 / RFU, TMEM33 / Fold change vs veh, TMEM33 / RFU, WDR75 / Fold change vs veh, WDR75 / RFU, AHCTF1 / Fold change vs veh, AHCTF1 / RFU, TFRC / Fold change vs veh, TFRC / RFU, ZDHHC17 / Fold change vs veh, ZDHHC17 / RFU, NOM1 / Fold change vs veh, NOM1 / RFU, ARL8B / Fold change vs veh, ARL8B / RFU, ZBTB11 / Fold change vs veh, ZBTB11 / RFU, TAMM41 / Fold change vs veh, TAMM41 / RFU, KIAA1704 /// LOC100996395 / Fold change vs veh, KIAA1704 /// LOC100996395 / RFU, ING1 / Fold change vs veh, ING1 / RFU, TRMT61B / Fold change vs veh, TRMT61B / RFU, FUBP3 / Fold change vs veh, FUBP3 / RFU, TP53 / Fold change vs veh, TP53 / RFU, TNKS2 / Fold change vs veh, TNKS2 / RFU, ZFP14 / Fold change vs veh, ZFP14 / RFU, ACTR2 / Fold change vs veh, ACTR2 / RFU, PPP3R1 / Fold change vs veh, PPP3R1 / RFU, PIK3R1 / Fold change vs veh, PIK3R1 / RFU, HNRNPA1 / Fold change vs veh, HNRNPA1 / RFU, RNF170 / Fold change vs veh, RNF170 / RFU, ZNF28 / Fold change vs veh, ZNF28 / RFU, RNGTT / Fold change vs veh, RNGTT / RFU, OGT / Fold change vs veh, OGT / RFU, BRD1 / Fold change vs veh, BRD1 / RFU, MARS / Fold change vs veh, MARS / RFU, ZNF655 / Fold change vs veh, ZNF655 / RFU, FAHD1 / Fold change vs veh, FAHD1 / RFU, BDP1 / Fold change vs veh, BDP1 / RFU, LRRCC1 / Fold change vs veh, LRRCC1 / RFU, ARID1A / Fold change vs veh, ARID1A / RFU, ZNF146 / Fold change vs veh, ZNF146 / RFU, ZNF330 / Fold change vs veh, ZNF330 / RFU, GPN3 / Fold change vs veh, GPN3 / RFU, C9orf123 / Fold change vs veh, C9orf123 / RFU, N4BP2L2 / Fold change vs veh, N4BP2L2 / RFU, ARFIP1 / Fold change vs veh, ARFIP1 / RFU, FAM179B / Fold change vs veh, FAM179B / RFU, BCL10 / Fold change vs veh, BCL10 / RFU, UHRF1BP1L / Fold change vs veh, UHRF1BP1L / RFU, BET1 / Fold change vs veh, BET1 / RFU, CNOT2 / Fold change vs veh, CNOT2 / RFU, ZNF268 / Fold change vs veh, ZNF268 / Fold change vs veh, ZNF507 / RFU, DGCR2 / Fold change vs veh, DGCR2 / RFU, WDSUB1 / Fold change vs veh, WDSUB1 / Fold change vs veh, HSP90B1 /// MIR3652 / RFU, ADSS / Fold change vs veh, ADSS / RFU, GK / Fold change vs veh, GK / RFU, ZNF148 / Fold change vs veh, ZNF148 / RFU, TAF9 / Fold change vs veh, TAF9 / RFU, SLC1A5 / Fold change vs veh, SLC1A5 / RFU, SLMO2 / Fold change vs veh, SLMO2 / RFU, ABCC4 / Fold change vs veh, ABCC4 / RFU, LOC101060439 /// RAP1B / Fold change vs veh, LOC101060439 /// RAP1B / RFU, RFX7 / Fold change vs veh, RFX7 / RFU, GTPBP10 / Fold change vs veh, GTPBP10 / RFU, CNEP1R1 / Fold change vs veh, CNEP1R1 / RFU, BIVM-ERCC5 /// ERCC5 / Fold change vs veh, BIVM-ERCC5 /// ERCC5 / RFU, ILF3 / Fold change vs veh, ILF3 / RFU 11762660_at / Fold change /veh 11762660_at / RFU VCAN (11757783_s_at) / Fold change /veh VCAN (11757783_s_at) / RFU DDX43 (11728927_at) / Fold change /veh DDX43 (11728927_at) / RFU KRT8 (11758188_x_at) / Fold change /veh KRT8 (11758188_x_at) / RFU NKD1 (11759106_at) / Fold change /veh NKD1 (11759106_at) / RFU SRD5A1 (11742802_a_at) / Fold change /veh SRD5A1 (11742802_a_at) / RFU TPSAB1 /// TPSB2 (11721975_s_at) / Fold change /veh TPSAB1 /// TPSB2 (11721975_s_at) / RFU GSTM3 (11746129_a_at) / Fold change /veh GSTM3 (11746129_a_at) / RFU IL23R (11737362_x_at) / Fold change /veh IL23R (11737362_x_at) / RFU TMEM51 (11727254_a_at) / Fold change /veh TMEM51 (11727254_a_at) / RFU PIWIL2 (11732686_x_at) / Fold change /veh PIWIL2 (11732686_x_at) / RFU ORM1 (11744905_x_at) / Fold change /veh ORM1 (11744905_x_at) / RFU CCDC152 (11743942_at) / Fold change /veh CCDC152 (11743942_at) / RFU ECM1 (11717891_a_at) / Fold change /veh ECM1 (11717891_a_at) / RFU IL23R (11748794_a_at) / Fold change /veh IL23R (11748794_a_at) / RFU TNFAIP8L3 (11732012_x_at) / Fold change /veh TNFAIP8L3 (11732012_x_at) / RFU MBOAT4 (11741988_at) / Fold change /veh MBOAT4 (11741988_at) / RFU 11764193_at / Fold change /veh 11764193_at / RFU TMEM53 (11763286_at) / Fold change /veh TMEM53 (11763286_at) / RFU MAGEB2 (11727129_at) / Fold change /veh MAGEB2 (11727129_at) / RFU TMEM200A (11744735_a_at) / Fold change /veh TMEM200A (11744735_a_at) / RFU CCDC152 (11751479_a_at) / Fold change /veh CCDC152 (11751479_a_at) / RFU FAM211A (11726209_a_at) / Fold change /veh FAM211A (11726209_a_at) / RFU RGS16 (11746705_a_at) / Fold change /veh RGS16 (11746705_a_at) / RFU VCAN (11755009_s_at) / Fold change /veh VCAN (11755009_s_at) / RFU RHOB (11743442_s_at) / Fold change /veh RHOB (11743442_s_at) / RFU RGS16 (11720943_a_at) / Fold change /veh RGS16 (11720943_a_at) / RFU RGS16 (11720944_at) / Fold change /veh RGS16 (11720944_at) / RFU, VPS4B / Fold change vs veh, VPS4B / RFU, CREB1 / Fold change vs veh, CREB1 / RFU, DNAJC13 / Fold change vs veh, DNAJC13 / RFU, GNAQ / Fold change vs veh, GNAQ / RFU, CDK5R1 / Fold change vs veh, CDK5R1 / RFU, ZRANB3 / Fold change vs veh, ZRANB3 / RFU, CUL4A / Fold change vs veh, CUL4A / RFU, CCNY / Fold change vs veh, CCNY / RFU, UFL1 / Fold change vs veh, UFL1 / RFU, COG3 / Fold change vs veh, COG3 / RFU, DIAPH2 / Fold change vs veh, DIAPH2 / RFU, SKA2 / Fold change vs veh, SKA2 / RFU, AFF3 / Fold change vs veh, AFF3 / RFU, LMF1 / Fold change vs veh, LMF1 / RFU, IPO11 / Fold change vs veh, IPO11 / RFU, DFFB / Fold change vs veh, DFFB / RFU, FOXP1 / Fold change vs veh, FOXP1 / RFU, CARD8 / Fold change vs veh, CARD8 / RFU, STRN3 / Fold change vs veh, STRN3 / RFU, ADK / Fold change vs veh, ADK / RFU, RASSF2 / Fold change vs veh, RASSF2 / RFU, WIPF1 / Fold change vs veh, WIPF1 / RFU, LARP1B / Fold change vs veh, LARP1B / RFU, RASA1 / Fold change vs veh, RASA1 / RFU, RB1 / Fold change vs veh, RB1 / RFU, PPFIA1 / Fold change vs veh, PPFIA1 / RFU, MAT2A / Fold change vs veh, MAT2A / RFU, CCT5 / Fold change vs veh, CCT5 / RFU, WDR92 / Fold change vs veh, WDR92 / RFU, CUX1 / Fold change vs veh, CUX1 / RFU, TTC7A / Fold change vs veh, TTC7A / RFU, TMEM135 / Fold change vs veh, TMEM135 / RFU, DEPTOR / Fold change vs veh, DEPTOR / RFU, CPM / Fold change vs veh, CPM / RFU, DNAJB6 / Fold change vs veh, DNAJB6 / RFU, CACNA2D3 / Fold change vs veh, CACNA2D3 / RFU, DTX4 / Fold change vs veh, DTX4 / RFU, TFCP2 / Fold change vs veh, TFCP2 / RFU, GMCL1 /// GMCL1P1 / Fold change vs veh, GMCL1 /// GMCL1P1 / RFU, AEBP2 / Fold change vs veh, AEBP2 / RFU, SNHG1 /// SNORD22 /// SNORD25 /// SNORD26 /// SNORD27 /// SNORD28 /// SNORD29 /// SNORD31 / Fold change vs veh, SNHG1 /// SNORD22 /// SNORD25 /// SNORD26 /// SNORD27 /// SNORD28 /// SNORD29 /// SNORD31 / Fold change (Aza/veh), C12orf56 (ProbeSet 11735607_a_at) / Fold change (ACY-1035/veh), C12orf56 (ProbeSet 11735607_a_at) / Fold change (Aza/veh), FGFR1OP (ProbeSet 11751329_s_at) / Fold change (ACY-1035/veh), FGFR1OP (ProbeSet 11751329_s_at) / Fold change (Aza/veh), VPS36 (ProbeSet 11739960_a_at) / Fold change (ACY-1035/veh), VPS36 (ProbeSet 11739960_a_at) / RFU SYPL1 (11715823_x_at) / Fold change /veh SYPL1 (11715823_x_at) / RFU IGFBP7 (11715501_s_at) / Fold change /veh IGFBP7 (11715501_s_at) / RFU REEP3 (11722064_at) / Fold change /veh REEP3 (11722064_at) / RFU IGLL1 (11728026_x_at) / Fold change /veh IGLL1 (11728026_x_at): dose or concentration left out as unconfirmed",
  "conditions": "ProbeSet 11739106_a_at; LIST B",
  "data": [
    {"molecule": "Nc1ncn([C@@H]2O[C@H](CO)[C@@H](O)[C@H]2O)c(=O)n1", "note": "[azacitidine]", "values": [
      {"measurement": "RFU, TMEM33", "value": 268.42, "unit": "RFU"}
    ]}
  ]
}
